Assay results taken from US12728149B2, “Pharmaceutical composition for preventing and treating depression, comprising herbal medicine complex extracts of Zizyphi spinosi Semen, Jujubae Fructus, Hordei Fructus Germinatus, Glycyrrhizae Radix et Rhizoma, Angelicae Gigantis Radix, and Beta vulgaris as active ingredients” (INDUSTRY-ACADEMIC COORPERATION FOUNDATION DAEGU HAANY …, priority 2023, dated 2026).

Assays:
mice [1] = test: Forced swimming test (FST); assay type: in vivo
Procedure: (§1) All animal experiment procedures of the present disclosure were conducted in compliance with the preliminary review and ethics regulations of the Animal Experiment Ethics Committee of Daegu Haany University. 4-week-old male ICR mice (SPF/VAF CrljBgi:CD-1) were supplied from the Daehan Biolink (Chungcheongbuk-do, Korea), and adapted and used for 7 days in the pharmacology animal laboratory of Daegu Haany University. Each group consisted of 8 mice, and 5 mice were housed in polycarbonate mice cages and bred in a breeding room where a temperature of 23±1° C., humidity of 50±5%, and lighting time of 07:00 to 19:00 (12-hour cycle) were kept constant. During the adaptation period, feed and water were supplied without restrictions. […]
(§2) In order to verify whether there was an antidepressant effect of the herbal medicine complex extracts of Zizyphi spinosi Semen, Jujubae Fructus, Hordei Fructus Germinatus, Glycyrrhizae Radix et Rhizoma, Angelicae Gigantis Radix, and Beta vulgaris of the present disclosure, a forced swimming test (FST) was performed using experimental animals. The antidepressant effect was determined by measuring the immobility time during the forced swimming test, and it was meant that shorter the immobility time, the greater the antidepressant effect. […]

mice [2] = test: Tail suspension test (TST); assay type: in vivo
Procedure: as §1
as §2, with “tail suspension” for “forced swimming”, “(TST)” for “(FST)”, “experimental animals with tails alternated mobility and immobility, and the” for “it was meant that”, “there was” for “the greater”

[3] = imipramine 15 mg/kg intraperitoneally

## CN(C)CCCN1c2ccccc2CCc2ccccc21 [Imipramine, imipramine]
Mice [1]; [3]
  immobility time compared to the control group: reduced
Mice [1]; measured for 4 minutes, imipramine 15 mg/kg intraperitoneally for 1 week, test 30 minutes after administration on day 7
  Immobility time: 177.01 ± 5.67 s
Mice [2]; [3]
  immobility time compared to the control group: decreased
Mice [2]; measured for 10 minutes, imipramine 15 mg/kg intraperitoneally for 1 week
  Immobility time: 157.82 ± 11.02 s
